Data reported in the NIST ThermoML archive (doi:10.1021/je900124n).
“And” between values parts separate entries of the source, which are not always exact repeats. Equal entries are not always repeated.

Details: Fluid (supercritical or subcritical phases), Buoyancy - hydrostatic balance with magnetic suspension - two sinkers

CCC [propane]
Details | mass density
369.83 K, 4284.6 kPa | 281.214 kg/m3 and 281.229 kg/m3 and 281.215 kg/m3
369.83 K, 4284.7 kPa | 281.219 kg/m3 and 281.22 kg/m3
369.83 K, 4985.9 kPa | 337.354 kg/m3 and 337.357 kg/m3
369.83 K, 4986 kPa | 337.358 kg/m3 and 337.357 kg/m3
369.83 K, 4986.1 kPa | 337.356 kg/m3 and 337.357 kg/m3
369.83 K, 8381.5 kPa | 391.64 kg/m3
369.83 K, 8382 kPa | 391.644 kg/m3 and 391.642 kg/m3 and 391.641 kg/m3
369.83 K, 8382.2 kPa | 391.644 kg/m3
369.83 K, 8382.4 kPa | 391.643 kg/m3
369.83 K, 8382.6 kPa | 391.644 kg/m3
369.85 K, 311.85 kPa | 4.5865 kg/m3 and 4.5866 kg/m3
369.85 K, 311.86 kPa | 4.5867 kg/m3
369.85 K, 554.46 kPa | 8.3301 kg/m3 and 8.3303 kg/m3
369.85 K, 927.78 kPa | 14.4328 kg/m3 and 14.4326 kg/m3
369.85 K, 927.79 kPa | 14.4329 kg/m3
369.85 K, 1387.4 kPa | 22.6395 kg/m3 and 22.6384 kg/m3 and 22.6393 kg/m3
369.85 K, 1387.5 kPa | 22.64 kg/m3 and 22.6401 kg/m3
369.85 K, 2120.4 kPa | 37.8404 kg/m3 [middle of 5 runs]
369.85 K, 2871.7 kPa | 57.8231 kg/m3
369.85 K, 2871.8 kPa | 57.8298 kg/m3 and 57.8251 kg/m3
369.85 K, 3827.6 kPa | 100.815 kg/m3 and 100.816 kg/m3
369.85 K, 3827.7 kPa | 100.817 kg/m3
369.85 K, 4188.1 kPa | 146.906 kg/m3
369.85 K, 4188.2 kPa | 146.91 kg/m3
369.85 K, 4188.3 kPa | 146.915 kg/m3 and 146.912 kg/m3
369.85 K, 4188.4 kPa | 146.917 kg/m3
369.85 K, 4241.5 kPa | 177.435 kg/m3
369.85 K, 4241.8 kPa | 177.526 kg/m3 and 177.58 kg/m3 and 177.506 kg/m3
369.85 K, 4241.9 kPa | 177.65 kg/m3
369.85 K, 4248.2 kPa | 218.49 kg/m3 and 218.749 kg/m3 and 220.705 kg/m3
369.85 K, 4248.3 kPa | 224.686 kg/m3 and 220.268 kg/m3
369.85 K, 4248.4 kPa | 235.513 kg/m3 and 235.434 kg/m3
369.85 K, 4248.6 kPa | 231.541 kg/m3 and 236.898 kg/m3
369.85 K, 4258.6 kPa | 265.216 kg/m3 and 265.238 kg/m3
369.85 K, 4258.7 kPa | 265.211 kg/m3
369.85 K, 4372.9 kPa | 299.086 kg/m3
369.85 K, 4373 kPa | 299.075 kg/m3
369.85 K, 4373.1 kPa | 299.089 kg/m3
369.85 K, 4373.2 kPa | 299.082 kg/m3
369.85 K, 5012.2 kPa | 338.098 kg/m3
369.85 K, 5012.3 kPa | 338.097 kg/m3
369.85 K, 5012.5 kPa | 338.099 kg/m3
369.85 K, 5012.6 kPa | 338.102 kg/m3
369.85 K, 5520.1 kPa | 352.211 kg/m3
369.85 K, 5520.4 kPa | 352.212 kg/m3
369.86 K, 554.46 kPa | 8.3303 kg/m3 and 8.3302 kg/m3
369.86 K, 927.79 kPa | 14.4327 kg/m3 and 14.4326 kg/m3
369.86 K, 4248.7 kPa | 234.526 kg/m3
369.86 K, 4258.8 kPa | 265.251 kg/m3 and 265.229 kg/m3
369.86 K, 5520.6 kPa | 352.209 kg/m3 and 352.21 kg/m3
369.93 K, 4252.7 kPa | 197.999 kg/m3 and 197.778 kg/m3
369.93 K, 4252.8 kPa | 198.048 kg/m3 [middle of 4 runs]
369.93 K, 4252.9 kPa | 197.901 kg/m3
369.93 K, 4253.8 kPa | 232.64 kg/m3
369.93 K, 4253.9 kPa | 232.539 kg/m3
369.93 K, 4254 kPa | 231.862 kg/m3 [middle of 5 runs]
369.93 K, 4255 kPa | 244.442 kg/m3 [middle of 4 runs]
369.93 K, 4255.1 kPa | 244.551 kg/m3 and 244.556 kg/m3
369.93 K, 4255.2 kPa | 244.584 kg/m3 and 244.7 kg/m3
369.95 K, 4248.2 kPa | 177.636 kg/m3
369.95 K, 4248.3 kPa | 177.67 kg/m3 and 177.631 kg/m3 and 177.707 kg/m3
369.95 K, 4248.4 kPa | 177.657 kg/m3
369.95 K, 4255.7 kPa | 214.994 kg/m3 and 214.812 kg/m3 and 213.928 kg/m3
369.95 K, 4255.8 kPa | 214.794 kg/m3 and 214.471 kg/m3
369.95 K, 4256.2 kPa | 231.389 kg/m3
369.95 K, 4256.3 kPa | 231.791 kg/m3 and 231.342 kg/m3
369.95 K, 4256.4 kPa | 233.445 kg/m3 and 231.817 kg/m3
369.95 K, 4268 kPa | 265.209 kg/m3 and 265.217 kg/m3 and 265.193 kg/m3
369.95 K, 4268.2 kPa | 265.233 kg/m3
369.96 K, 4268.2 kPa | 265.215 kg/m3
370.03 K, 4259.9 kPa | 197.023 kg/m3 and 197.111 kg/m3 and 197.064 kg/m3
370.03 K, 4260 kPa | 197.186 kg/m3 [middle of 4 runs]
370.03 K, 4260.1 kPa | 197.3 kg/m3
370.03 K, 4261.6 kPa | 225.827 kg/m3 and 225.421 kg/m3 and 225.472 kg/m3
370.03 K, 4261.7 kPa | 225.904 kg/m3 and 225.809 kg/m3 and 225.73 kg/m3
370.03 K, 4261.8 kPa | 225.954 kg/m3 and 225.938 kg/m3
370.03 K, 4263.3 kPa | 244.173 kg/m3 and 244.096 kg/m3
370.03 K, 4263.4 kPa | 244.149 kg/m3 and 244.214 kg/m3
370.03 K, 4263.5 kPa | 244.309 kg/m3 and 244.177 kg/m3 and 244.274 kg/m3
370.03 K, 4263.6 kPa | 244.294 kg/m3
370.05 K, 4254.8 kPa | 177.712 kg/m3 and 177.662 kg/m3
370.05 K, 4254.9 kPa | 177.695 kg/m3 and 177.74 kg/m3 and 177.673 kg/m3
370.05 K, 4263.2 kPa | 211.406 kg/m3 and 211.212 kg/m3
370.05 K, 4263.4 kPa | 211.466 kg/m3 and 212.306 kg/m3 and 211.429 kg/m3
370.05 K, 4264.2 kPa | 229.256 kg/m3 and 228.799 kg/m3
370.05 K, 4264.3 kPa | 229.262 kg/m3 and 229.062 kg/m3
370.05 K, 4277.5 kPa | 265.204 kg/m3 [middle of 4 runs]
370.05 K, 4277.6 kPa | 265.242 kg/m3
370.06 K, 4264.4 kPa | 229.28 kg/m3
370.32 K, 4281.1 kPa | 196.636 kg/m3
370.32 K, 4281.2 kPa | 196.743 kg/m3 and 196.797 kg/m3 and 196.727 kg/m3
370.32 K, 4281.3 kPa | 196.729 kg/m3
370.33 K, 4212.1 kPa | 146.689 kg/m3 and 146.681 kg/m3
370.33 K, 4212.2 kPa | 146.684 kg/m3 [middle of 5 runs]
370.33 K, 4281.2 kPa | 196.669 kg/m3
370.33 K, 4281.3 kPa | 197.033 kg/m3 and 196.772 kg/m3
370.33 K, 4284.6 kPa | 220.89 kg/m3
370.33 K, 4284.7 kPa | 220.777 kg/m3 and 220.874 kg/m3 and 220.88 kg/m3
370.33 K, 4284.8 kPa | 221.028 kg/m3 and 221.044 kg/m3 and 221.077 kg/m3
370.33 K, 4284.9 kPa | 221.146 kg/m3
370.33 K, 4288.5 kPa | 243.759 kg/m3 and 243.744 kg/m3 and 243.764 kg/m3
370.33 K, 4288.6 kPa | 243.866 kg/m3 [middle of 5 runs]
370.35 K, 4214.3 kPa | 147.029 kg/m3 [middle of 5 runs]
370.35 K, 4274.3 kPa | 177.77 kg/m3 and 177.777 kg/m3
370.35 K, 4274.4 kPa | 177.843 kg/m3 and 177.765 kg/m3 and 177.808 kg/m3
370.35 K, 4285.7 kPa | 209.496 kg/m3 [middle of 4 runs]
370.35 K, 4285.8 kPa | 209.659 kg/m3
370.35 K, 4287.8 kPa | 228.296 kg/m3
370.35 K, 4287.9 kPa | 227.176 kg/m3 and 227.342 kg/m3
370.35 K, 4288 kPa | 227.25 kg/m3
370.35 K, 4305.9 kPa | 265.204 kg/m3
370.35 K, 4306 kPa | 265.214 kg/m3 and 265.193 kg/m3
370.35 K, 4306.1 kPa | 265.222 kg/m3
370.36 K, 4288 kPa | 227.268 kg/m3
370.36 K, 4306.1 kPa | 265.199 kg/m3
370.82 K, 4238.2 kPa | 146.893 kg/m3
